From patent US9902736B2, “1-oxo/acylation-14-acylated oridonin derivative, preparation method therefor and application thereof” (HANGZHOU BENSHENG PHARMACEUTICAL CO., LTD., priority 2012, dated 2018)
≈ marks a conversion by molar mass, not a printed value.

Assays:
K562/ADR = experiment: Leukemia cell growth inhibition, MTT, 72 h; type: cell-based; conditions: Homo sapiens
Excerpt: (§1) Leukemia cell lines: leukemia cell lines: K562/adr (drug-resistant, chronic myeloid leukemia, CML), NB4 (acute promyelocytic leukemia, AML), Kasumi-1 (acute myeloid leukemia M2 type, AML-M2), Jurkat (acute lymphoblastic leukemia, ALL), all of which were donated by Cancer Research Institute of Zhejiang University, China; and H9 (acute lymphoblastic leukemia, ALL), which was purchased from China Center for Type Culture Collection.
(§2) 6000 well-growing leukemia cells were obtained and inoculated into wells of a 96-well cell culture plate. […] On the next day, the 1-oxo/acylated-14-acylated oridonin derivatives of different concentrations were added and mixed uniformly. The plate was placed in a carbon dioxide cell incubator (5% CO2) at 37° C. and was incubated for 72 hours. Then the viable cell concentration was determined by MTT method.

Kasumi-1 = experiment: Leukemia cell growth inhibition, MTT, 72 h; type: cell-based; conditions: Homo sapiens
Excerpt: as §1, §2

H9 = experiment: Leukemia cell growth inhibition, MTT, 72 h; type: cell-based, human; conditions: Homo sapiens, H9; 72 h, MTT
Excerpt: as §1, §2

Jurkat = experiment: Leukemia cell growth inhibition, MTT, 72 h; type: cell-based, human; conditions: Homo sapiens, Jurkat; 72 h, MTT
Excerpt: as §1, §2

NB4 = experiment: Leukemia cell growth inhibition, MTT, 72 h; type: cell-based, human; conditions: Homo sapiens, NB-4; 72 h, MTT
Excerpt: as §1, §2

RPMI 8226 = experiment: Multiple myeloma cell growth inhibition, MTT, 72 h; type: cell-based; conditions: Homo sapiens
Procedure: Multiple myeloma cell lines: RPMI8226 (multiple myeloma), purchased from Fuxiang Bio-tech Co. Ltd., Shanghai, China.
6000 well-growing cells were obtained and inoculated into wells of a 96-well cell culture plate. […] On the next day, the 1-oxo/acylated-14-acylated oridonin derivatives of different concentrations were added and mixed uniformly. The plate was placed in a carbon dioxide cell incubator (5% CO2) at 37° C. and incubated for 72 hours. Then the viable cell concentration was determined by MTT method.

CNE = experiment: Solid tumor cell growth inhibition, MTT, 72 h; type: cell-based, human; conditions: Homo sapiens, CNE; 72 h, MTT
Procedure: (§3) 6000 well-growing human solid tumor cells were obtained and inoculated into wells of a 96-well cell culture plate. The culture medium was DMEM High Glucose cell culture medium containing 10% fetal bovine serum. The plate was placed in a carbon dioxide cell incubator (5% CO2) at 37° C. and incubated for 24 hours. After added with 1-oxo/acylated-14-acylated oridonin derivatives of different concentration and mixed uniformly, the plate was placed in a carbon dioxide cell incubator (5% CO2) at 37° C. and incubated for 72 hours. Then the viable cell concentration was determined by MTT method.

Hela = experiment: Solid tumor cell growth inhibition, MTT, 72 h; type: cell-based, human; conditions: Homo sapiens, HeLa; 72 h, MTT
Procedure: as §3

Hep-2 = experiment: Solid tumor cell growth inhibition, MTT, 72 h; type: cell-based, human; conditions: Homo sapiens, HEp-2; 72 h, MTT
Procedure: as §3

MGC-803 = experiment: Solid tumor cell growth inhibition, MTT, 72 h; type: cell-based, human; conditions: Homo sapiens, MGC-803; 72 h, MTT
Procedure: as §3

A549 = experiment: Solid tumor cell growth inhibition, MTT, 72 h; type: cell-based; conditions: Homo sapiens
Procedure: as §3

Becap-37 = experiment: Solid tumor cell growth inhibition, MTT, 72 h; type: cell-based; conditions: Homo sapiens
Procedure: as §3

CaEs-17 = experiment: Solid tumor cell growth inhibition, MTT, 72 h; type: cell-based; conditions: Homo sapiens, CaEs17
Procedure: as §3

Hep G2 = experiment: Solid tumor cell growth inhibition, MTT, 72 h; type: cell-based; conditions: Homo sapiens, HepG2
Procedure: as §3

MG-63 = experiment: Solid tumor cell growth inhibition, MTT, 72 h; type: cell-based; conditions: Homo sapiens
Procedure: as §3

PANC-1 = experiment: Solid tumor cell growth inhibition, MTT, 72 h; type: cell-based; conditions: Homo sapiens
Procedure: as §3

PC-3 = experiment: Solid tumor cell growth inhibition, MTT, 72 h; type: cell-based; conditions: Homo sapiens
Procedure: as §3

RKO = experiment: Solid tumor cell growth inhibition, MTT, 72 h; type: cell-based; conditions: Homo sapiens
Procedure: as §3

SK-OV-3 = experiment: Solid tumor cell growth inhibition, MTT, 72 h; type: cell-based; conditions: Homo sapiens, SK-OV-3, 72 h, MTT; for IC50: read-out: IC50 SK-OV-3; for IC90: read-out: IC90 SK-OV-3
Procedure: as §3

U87-MG = experiment: Solid tumor cell growth inhibition, MTT, 72 h; type: cell-based; conditions: Homo sapiens, U-87 MG
Procedure: as §3

Row | SMILES | IC50 (K562/ADR) [µg/mL] | IC90 (K562/ADR) [µg/mL] | IC50 (Kasumi-1) [µg/mL] | IC90 (Kasumi-1) [µg/mL] | IC50 (H9) [µg/mL] | IC90 (H9) [µg/mL] | IC50 (Jurkat) [µg/mL] | IC90 (Jurkat) [µg/mL] | IC50 (NB4) [µg/mL] | IC90 (NB4) [µg/mL] | IC50 (RPMI 8226) [µg/mL] | IC90 (RPMI 8226) [µg/mL] | IC50 (CNE) [µg/mL] | IC90 (CNE) [µg/mL] | IC50 (Hela) [µg/mL] | IC90 (Hela) [µg/mL] | IC50 (Hep-2) [µg/mL] | IC90 (Hep-2) [µg/mL] | IC50 (MGC-803) [µg/mL] | IC90 (MGC-803) [µg/mL] | other results
1 | C=C1C(=O)[C@]23[C@H](OC(=O)C4CCC(NC(=O)c5ccccn5)CC4)[C@H]1CC[C@H]2[C@@]12CO[C@@]3(O)[C@@H](O)[C@@H]1C(C)(C)CCC2=O (some centres unmarked) [BS-OR-083] | 0.58 (≈ 0.979 µM) | 1.94 (≈ 3.27 µM) | 1.09 (≈ 1.84 µM) | 2.59 (≈ 4.37 µM) | 0.56 (≈ 0.945 µM) | 1.54 (≈ 2.6 µM) | 0.89 (≈ 1.5 µM) | 4.13 (≈ 6.97 µM) | 0.31 (≈ 0.523 µM) | 0.99 (≈ 1.67 µM) | 0.85 (≈ 1.43 µM) | 2.92 (≈ 4.93 µM) | 1.52 (≈ 2.56 µM) | 4.42 (≈ 7.46 µM) | 1.92 (≈ 3.24 µM) | 4.95 (≈ 8.35 µM) | 3.13 (≈ 5.28 µM) | 15.5 (≈ 26.2 µM) | 1.26 (≈ 2.13 µM) | 5.57 (≈ 9.4 µM) | IC50 (A549): 5.07 µg/mL (≈ 8.55 µM); IC90 (A549): 11.3 µg/mL (≈ 19.1 µM); IC50 (Becap-37): 2.21 µg/mL (≈ 3.73 µM); IC90 (Becap-37): 6.5 µg/mL (≈ 11 µM); IC50 (CaEs-17): 1.71 µg/mL (≈ 2.89 µM); IC90 (CaEs-17): 10.2 µg/mL (≈ 17.2 µM); IC50 (Hep G2): 2.83 µg/mL (≈ 4.77 µM); IC90 (Hep G2): 11.9 µg/mL (≈ 20.1 µM); IC50 (MG-63): 0.76 µg/mL (≈ 1.28 µM); IC90 (MG-63): 1.7 µg/mL (≈ 2.87 µM); IC50 (PANC-1): 3.14 µg/mL (≈ 5.3 µM); IC90 (PANC-1): 9.16 µg/mL (≈ 15.5 µM); IC50 (PC-3): 3.16 µg/mL (≈ 5.33 µM); IC90 (PC-3): 6.8 µg/mL (≈ 11.5 µM); IC50 (RKO): 0.68 µg/mL (≈ 1.15 µM); IC90 (RKO): 1.68 µg/mL (≈ 2.83 µM); IC50 (SK-OV-3): 3.16 µg/mL (≈ 5.33 µM); IC90 (SK-OV-3): 6.8 µg/mL (≈ 11.5 µM); IC50 (U87-MG): 1.29 µg/mL (≈ 2.18 µM); IC90 (U87-MG): 4.61 µg/mL (≈ 7.78 µM)
2 | C=C1C(=O)[C@]23[C@H](OC(=O)c4cccc(C)c4)[C@H]1CC[C@H]2[C@@]12CO[C@@]3(O)[C@@H](O)[C@@H]1C(C)(C)CCC2=O [BS-OR-008] | 0.52 (≈ 1.08 µM) | 2.33 (≈ 4.85 µM) | 0.73 (≈ 1.52 µM) | 1.84 (≈ 3.83 µM) | 0.76 (≈ 1.58 µM) | 1.79 (≈ 3.72 µM) | 0.73 (≈ 1.52 µM) | 2.6 (≈ 5.41 µM) | 0.29 (≈ 0.603 µM) | 0.92 (≈ 1.91 µM) | 0.37 (≈ 0.77 µM) | 1.72 (≈ 3.58 µM) | 2.16 (≈ 4.49 µM) | 10.5 (≈ 21.8 µM) | 1.45 (≈ 3.02 µM) | 3.9 (≈ 8.12 µM) | 3.11 (≈ 6.47 µM) | 13.2 (≈ 27.4 µM) | 1.39 (≈ 2.89 µM) | 3.89 (≈ 8.09 µM) | IC50 (A549): 2.75 µg/mL (≈ 5.72 µM); IC90 (A549): 6.86 µg/mL (≈ 14.3 µM); IC50 (Becap-37): 1.08 µg/mL (≈ 2.25 µM); IC90 (Becap-37): 3.35 µg/mL (≈ 6.97 µM); IC50 (CaEs-17): 1.22 µg/mL (≈ 2.54 µM); IC90 (CaEs-17): 4.75 µg/mL (≈ 9.88 µM); IC50 (Hep G2): 1.74 µg/mL (≈ 3.62 µM); IC90 (Hep G2): 12.6 µg/mL (≈ 26.2 µM); IC50 (MG-63): 0.42 µg/mL (≈ 0.874 µM); IC90 (MG-63): 0.98 µg/mL (≈ 2.04 µM); IC50 (PANC-1): 1.73 µg/mL (≈ 3.6 µM); IC90 (PANC-1): 11.4 µg/mL (≈ 23.6 µM); IC50 (PC-3): 1.59 µg/mL (≈ 3.31 µM); IC90 (PC-3): 3.67 µg/mL (≈ 7.64 µM); IC50 (RKO): 0.47 µg/mL (≈ 0.978 µM); IC90 (RKO): 0.94 µg/mL (≈ 1.96 µM); IC50 (SK-OV-3): 1.59 µg/mL (≈ 3.31 µM); IC90 (SK-OV-3): 3.67 µg/mL (≈ 7.64 µM); IC50 (U87-MG): 0.86 µg/mL (≈ 1.79 µM); IC90 (U87-MG): 2.4 µg/mL (≈ 4.99 µM)
